Earlier results in patent US12409239B2, “Particles for use in hyperpolarization” (BEACON MRI LTD, priority 2021, dated 2025).

Conditions: background statement

T1: about a minute
SMILES: CC(=O)C(=O)O [pyruvate/pyruvic acid, pyruvic acid]
